Earlier results as cited in patent US20220378705A1, “METHOD FOR PREPARING PHARMACEUTICAL COMPOSITIONS CONTAINING AMPHIPHILIC ACTIVE INGREDIENTS” (PHARMADEV SA, priority 2019, published 2022).

Tests used:
[1] = octanol-water partition coefficient

| SMILES | Log Po/w [1] | pKa |
| --- | --- | --- |
| CC(C(=O)O)c1ccc(-c2ccccc2)c(F)c1 (stereo not shown) [FLURBIPROFEN, 2-(3-fluoro-4-phenylphenyl)propanoic acid] | 4.16 | 4.17 |
| Cc1cccc(Nc2ccccc2C(=O)O)c1C [MEFENAMIC ACID, 2-(2,3-dimethylanilino)benzoic acid] | 4.20 | – |
| O=C(c1ccccc1)c1ccc2n1CCC2C(=O)O (racemic) [KETOROLAC, 2-amino-2-(hydroxymethyl)propane-1,3-2-amino-2-(hydroxymethyl)-1,3-propanediol(±)-5-benzoyl-2,3-dihydro-1H-pyrrolizine-1-carboxylic acid diol(±)-5-benzoyl-2,3-dihydro-1H-pyrrolizine-1-carboxylic acid] | 2.3 | 3.84 |
| O=C(O)c1cccnc1Nc1cccc(C(F)(F)F)c1 [NIFLUMIC ACID] | 4.43 | 4.44 |
